Test results from US20180179386A1, “NANOGEL COMPOUND” (priority 2015, published 2018).

Tested on: DOXO resistant cell line KB-V1
Test: Cytotoxicity of DOXO-loaded nanogel compounds vs free DOXO, MTT assay, resistant cells
Type: cell-based
Conditions: free DOXO up to 10 μM external concentration
Excerpt: In order to use the nanogel compounds for anticancer therapy, the cytotoxicity of the DOXO-loaded nanogel compounds compared with free DOXO was studied in two different cell lines: sensitive-type HeLa cells and DOXO resistant cell line KB-V1. Thereby, squares denote PNIPAM-dPG/AMPS, circles denote PNIPAM-dPG/DMAEM, and triangles denote free DOXO.

COc1cccc2c1C(=O)c1c(O)c3c(c(O)c1C2=O)C[C@@](O)(C(=O)CO)C[C@@H]3O[C@H]1C[C@H](N)[C@H](O)[C@H](C)O1 [DOXO, doxorubicin]
cytotoxicity: no effect
